# US8853261B2, “Nutraceutical composition from Garcinia mangostana” (Laila Nutraceuticals, priority 2008, dated 2014)
# Values joined by “and” are separate entries in the source; they are usually repeats but may differ in a detail not shown here. Identical values can stand only once. “Also recorded” adds a separate entry of the source.
# What was measured:
# potato 5-lipoxygenase = test: 5-Lipoxygenase enzyme inhibitory activity; type: biochemical; details: for 5-Lipoxygenase inhibitory activity IC50 values: potato 5-lipoxygenase, linoleic acid substrate
# Experimental: 5-Lipoxygenase enzyme inhibitory activity was measured using the method of Schewe et al. (Adv Enzymol, Vol 58: pp 191-272, 1986), modified by Reddanna et. al., (Methods of Enzymology, Vol 187: pp 268-277, 1990). The assay mixture contained 80 μM linoleic acid and sufficient amount of potato 5-lipoxygenase in 50 mM phosphate buffer (pH 6.3). The reaction was initiated by the addition of enzyme buffer mix to linoleic acid and the enzyme activity was monitored as the increase in absorbance at 234 nm. The reaction was monitored for 120 sec and the inhibitory potential of the test substances was measured by incubating various concentrations of test substances two minutes before the addition of linoleic acid. All assays were performed three times. The IC50 values were calculated from the plot drawn of the concentrations of test substances versus percentage inhibition.
# [1] = system: adipocyte fatty acid-binding protein (aP2); test: Down-regulation of aP2 protein expression in LPS-induced THP-1 derived macrophages (Western blot); type: cell-based, human; details: 5 μg/ml, 2 h pretreatment, LPS 100 ng/ml 16 h, normalized to actin
# Experimental: The inventors also assessed the effect of α-mangostin and γ-mangostin on adipocyte fatty acid-binding protein aP2 expression in human monocytes-macrophage cells in a cell based in vitro model. In this experiment, THP-1 human monocyte-macrophage cells were pre-treated with 5 μg/ml of γ-mangostin or α-mangostin for 2 h and thereafter primed with LPS to induce the inflammatory response. The cellular proteins were extracted by cell lysis buffer and subjected to immuno-western blot to detect the modulation of expression of aP2 protein.
# Down-regulation of aP2 protein expression by α-mangostin and γ-mangostin was evaluated in a cell based in vitro model. […] The protein content was measured by Coomassie blue based Bradford method and equal amount of cellular protein lysates (2 μg) was resolved in 15% SDS-Polyacrylamide gels. […] The aP2 protein expression was specifically detected by chemiluminescent substrate (Pierce, USA); detection of chemiluminescent bands and densitometric analyses were carried out on Kodak 4000 mM image station (supplied by Kodak, USA). The same nitrocellulose blots were stripped and re-probed with anti-actin antibody (Sigma Chemical CO, USA) and actin protein expression was recorded as an indication of equal protein loading in each lane. […]
# TNF-α = test: Inhibition of LPS-induced TNF-α in THP-1 human monocytes (EIA); type: cell-based; details: THP-1 cells, 2 h pretreatment, 100 ng/ml LPS 4 h
# Experimental: Inhibition of Tumor necrosis factor-α (TNF-α) in vitro by α-mangostin and γ-mangostin: The anti-inflammatory activities of α-mangostin, γ-mangostin and composition-I were assessed in a cell based in vitro assay. Briefly, THP-1 human monocytes cells were washed and re-suspended in phenol red free Dulbecco's Modified Eagle's Medium (DMEM) supplemented with 1% fetal Bovine serum (FBS). Equal number of cells was added to each well of a 96-well TC plate and the cells were pretreated for 2 h with various concentrations of test substances (ranging from 0.5 to 50 μg/ml; solutions prepared in culture medium from a stock solution containing 50 mg/l mL DMSO of each test compound) of α-mangostin, γ-mangostin and composition-I. The inflammatory response was induced by treatment with 100 ng/ml of LPS for 4 h at 37° C. in presence of 5% CO2. The vehicle control culture wells received 0.1% DMSO in culture medium. The cell culture supernatants were collected and assessed for secretary pro-inflammatory cytokine, TNFα. The TNF-α concentration was quantitatively measured by highly specific and sensitive Enzyme Immuno Assay (EIA) kit supplied by R&D Systems, USA. The enzyme immuno assay was performed based on the protocol provided by the vendor. The inhibitory concentration for 50% inhibition (IC50) of TNF-α was determined from a plot drawn for ingredient concentration against TNF-α level.
compound,measurement,setting,value
COc1c(O)cc2oc3cc(O)c(CC=C(C)C)c(O)c3c(=O)c2c1CCC(C)(C)O [Garcinone D],5-Lipoxygenase inhibitory activity IC50 values,potato 5-lipoxygenase,5.7 µg/mL
COc1c(O)cc2oc3cc(O)c(CC=C(C)C)c(O)c3c(=O)c2c1CC=C(C)C [α-mangostin],Inhibition of LPS induced aP2 protein expression,[1],inhibition of aP2 protein expression
CC(C)=CCc1c(O)cc2oc3cc(O)c(O)c(CC=C(C)C)c3c(=O)c2c1O [γ-mangostin],5-Lipoxygenase inhibitory activity IC50 values,potato 5-lipoxygenase,0.52 µg/mL
same,Inhibition of LPS induced aP2 protein expression,[1],more potent inhibitor of aP2 in vitro compared to α-mangostin; also recorded: inhibited the LPS induced aP2 expression more strongly compared to α-mangostin
same,IC50 for TNFα,TNF-α,3.32 µg/mL and 3.322 µg/mL
Garcinone C,Relative potency of O-demethylxanthone versus O-methyl counterpart,potato 5-lipoxygenase; comparison in words,"relatively higher potency compared to its natural O-methyl counterpart, garcinone D"
same,5-Lipoxygenase inhibitory activity IC50 values,potato 5-lipoxygenase,2.8 µg/mL
